Data taken from ChEMBL document CHEMBL3853300, “Synthesis of α-santonin derived acetyl santonous acid triazole derivatives and their bioevaluation for T and B-cell proliferation” (Eur J Med Chem, 2016).

Experiments:
[1] = Immunosuppressive activity in Balb/c mouse B cells assessed as inhibition of LPS-induced cell proliferation at 1 uM after 48 hrs by MTT assay relative to control; assay type: functional
[2] = species on record: Mus musculus; assay: Cytotoxicity against Balb/c mouse B cells assessed as decrease in cell viability at 10 uM after 48 hrs by MTT assay; assay type: toxicity, cell-based
[3] = Immunosuppressive activity in Balb/c mouse B cells assessed as inhibition of LPS-induced cell proliferation at 10 uM after 48 hrs by MTT assay relative to control; assay type: functional
[4] = species on record: Mus musculus; assay: Cytotoxicity against Balb/c mouse B cells assessed as decrease in cell viability at 100 uM after 48 hrs by MTT assay; assay type: toxicity, cell-based
[5] = Immunosuppressive activity in Balb/c mouse T cells assessed as inhibition of ConA-induced cell proliferation at 100 uM after 48 hrs by MTT assay relative to control; assay type: functional
[6] = species on record: Mus musculus; assay: Cytotoxicity against Balb/c mouse B cells assessed as decrease in cell viability at 1 uM after 48 hrs by MTT assay; assay type: toxicity, cell-based
[7] = tested on: B; assay: Immunosuppressive activity in Balb/c mouse B cells assessed as inhibition of LPS-induced cell proliferation after 48 hrs by MTT assay relative to control; assay type: functional, cell-based
[8] = Immunosuppressive activity in Balb/c mouse T cells assessed as inhibition of ConA-induced cell proliferation at 1 uM after 48 hrs by MTT assay relative to control; assay type: functional
[9] = species on record: Mus musculus; assay: Cytotoxicity against Balb/c mouse T cells assessed as decrease in cell viability at 10 uM after 48 hrs by MTT assay; assay type: toxicity, cell-based
[10] = Immunosuppressive activity in Balb/c mouse T cells assessed as inhibition of ConA-induced cell proliferation at 10 uM after 48 hrs by MTT assay relative to control; assay type: functional
[11] = species on record: Mus musculus; assay: Cytotoxicity against Balb/c mouse T cells assessed as decrease in cell viability at 100 uM after 48 hrs by MTT assay; assay type: toxicity, cell-based
[12] = Immunosuppressive activity in Balb/c mouse B cells assessed as inhibition of LPS-induced cell proliferation at 50 uM after 48 hrs by MTT assay relative to control; assay type: functional
[13] = Immunosuppressive activity in Balb/c mouse B cells assessed as inhibition of LPS-induced cell proliferation at 100 uM after 48 hrs by MTT assay relative to control; assay type: functional
[14] = species on record: Mus musculus; assay: Cytotoxicity against Balb/c mouse T cells assessed as decrease in cell viability at 1 uM after 48 hrs by MTT assay; assay type: toxicity, cell-based
[15] = tested on: T-cell; assay: Immunosuppressive activity in Balb/c mouse T cells assessed as inhibition of ConA-induced cell proliferation after 48 hrs by MTT assay relative to control; assay type: functional, cell-based
[16] = Immunostimulatory activity in Balb/c mouse B cells assessed as induction of LPS-induced cell proliferation at 100 uM after 48 hrs by MTT assay relative to control; assay type: cell-based
[17] = Immunostimulatory activity in Balb/c mouse B cells assessed as induction of LPS-induced cell proliferation at 10 uM after 48 hrs by MTT assay relative to control; assay type: cell-based
[18] = Immunostimulatory activity in Balb/c mouse B cells assessed as induction of LPS-induced cell proliferation at 1 uM after 48 hrs by MTT assay relative to control; assay type: cell-based

Compound	inhibition at 1 µM [1] [%]	Activity [2]	inhibition at 10 µM [3] [%]	Activity [4]	inhibition at 100 µM [5] [%]	Activity [6]	inhibition [7]	inhibition at 1 µM [8] [%]	Activity [9]	inhibition at 10 µM [10] [%]	Activity [11]	inhibition at 50 µM [12] [%]	inhibition at 100 µM [13] [%]	Activity [14]	inhibition [15]	Activity [16] [%]	Activity [17] [%]	Activity [18] [%]
CC(=O)Oc1cc(C)c2c(c1C)C[C@H]([C@@H](C)C(=O)O)CC2	58.8	Toxic	57.2	Non-Toxic	75	Toxic	Dose-dependent effect	31.8	Toxic	52.3	Non-Toxic	75	71.8	Toxic	Dose-dependent effect	–	–	–
CC(=O)Oc1cc(C)c2c(c1C)C[C@H]([C@@H](C)C(=O)OCc1cn(-c3cccc(C#N)c3)nn1)CC2	–	Non-Toxic	–	Toxic	45.4	Toxic	–	20.4	Non-Toxic	25.9	Toxic	–	–	Toxic	–	37.71	42.28	8
